Results: the NIST ThermoML archive (doi:10.1021/acs.jced.9b00185)

What was measured:
[1] = xn = mol fraction of the nth substance listed; conditions: 298.15 K, 98.8 kPa, Liquid, Vibrating tube method
[2] = excess molar enthalpy (molar enthalpy of mixing); xn = mol fraction of the nth substance listed; conditions: 298.15 K, 98.8 kPa, Liquid, Calvet calorimetry
[3] = 298.15 K; 101.33 kPa; Liquid; Vibrating tube method
[4] = refractive index (Na D-line) (dimensionless); conditions: 298.15 K; 101.33 kPa; Liquid; Standard Abbe refractometry

CCCCCCCCCC(=O)OC [methyl decanoate] + CCCCCCCCCCCCCC
Conditions | excess molar enthalpy, [2] [kcal/mol] | mass density, [1] [kg/m3]
x1 = 0.0498 | – | 763.35
x1 = 0.0633 | 0.0497 | –
x1 = 0.0922 | 0.0712 | –
x1 = 0.1001 | – | 767.69
x1 = 0.1502 | – | 772.18
x1 = 0.1577 | 0.108 | –
x1 = 0.1964 | 0.126 | –
x1 = 0.1998 | – | 776.73
x1 = 0.2496 | – | 781.41
x1 = 0.258 | 0.152 | –
x1 = 0.2999 | – | 786.24
x1 = 0.3045 | 0.163 | –
x1 = 0.3501 | – | 791.21
x1 = 0.3597 | 0.176 | –
x1 = 0.3944 | 0.184 | –
x1 = 0.4001 | – | 796.26
x1 = 0.4492 | 0.19 | –
x1 = 0.4498 | – | 801.43
x1 = 0.5001 | – | 806.77
x1 = 0.5076 | 0.19 | –
x1 = 0.5498 | – | 812.19
x1 = 0.5535 | 0.185 | –
x1 = 0.5997 | – | 817.76
x1 = 0.607 | 0.173 | –
x1 = 0.6499 | – | 823.51
x1 = 0.6586 | 0.161 | –
x1 = 0.6999 | – | 829.37
x1 = 0.7089 | 0.146 | –
x1 = 0.7501 | – | 835.45
x1 = 0.7542 | 0.131 | –
x1 = 0.799 | – | 841.48
x1 = 0.8009 | 0.115 | –
x1 = 0.8477 | 0.0946 | –
x1 = 0.849 | – | 847.78
x1 = 0.8974 | 0.0676 | –
x1 = 0.8992 | – | 854.34
x1 = 0.9455 | 0.0423 | –
x1 = 0.95 | – | 861.12
x1 = 1 | 0 | 868.02

CCCCCCCCCC(=O)OC [methyl decanoate]
Conditions | mass density [kg/m3] | refractive index
[3] | 868.02 | –
[4] | – | 1.4235

CCCCCCCCCC(=O)OC [methyl decanoate] + CCCCCCCCCCCC
Conditions | excess molar enthalpy, [2] [kcal/mol] | mass density, [1] [kg/m3]
x1 = 0.05 | – | 750.68
x1 = 0.0512 | 0.0394 | –
x1 = 0.1 | – | 756.24
x1 = 0.1129 | 0.076 | –
x1 = 0.1503 | – | 761.93
x1 = 0.1513 | 0.101 | –
x1 = 0.1998 | – | 767.59
x1 = 0.2021 | 0.119 | –
x1 = 0.25 | – | 773.38
x1 = 0.2513 | 0.141 | –
x1 = 0.299 | 0.152 | –
x1 = 0.3001 | – | 779.28
x1 = 0.3506 | – | 785.27
x1 = 0.3572 | 0.163 | –
x1 = 0.3996 | – | 791.16
x1 = 0.4051 | 0.169 | –
x1 = 0.4473 | 0.172 | –
x1 = 0.4497 | – | 797.22
x1 = 0.5002 | – | 803.37
x1 = 0.5033 | 0.172 | –
x1 = 0.55 | – | 809.54
x1 = 0.5502 | 0.169 | –
x1 = 0.5952 | 0.163 | –
x1 = 0.5998 | – | 815.74
x1 = 0.6499 | – | 822.04
x1 = 0.652 | 0.15 | –
x1 = 0.6994 | – | 828.35
x1 = 0.7089 | 0.132 | –
x1 = 0.7495 | – | 834.79
x1 = 0.7524 | 0.117 | –
x1 = 0.7996 | – | 841.3
x1 = 0.8098 | 0.0954 | –
x1 = 0.8493 | – | 847.78
x1 = 0.8525 | 0.0731 | –
x1 = 0.8997 | – | 854.45
x1 = 0.9019 | 0.0485 | –
x1 = 0.9496 | – | 861.18
x1 = 0.9586 | 0.0196 | –
x1 = 1 | 0 | 868.02

CCCCCCCCCCCC [dodecane] + CCCCCCCCCC(=O)OC
x2 = 0
Conditions | excess molar enthalpy [kcal/mol] | mass density [kg/m3]
[1] | – | 745.2
[2] | 0 | –

CCCCCCCCCC [decane] + CCCCCCCCCC(=O)OC
Conditions | excess molar enthalpy [kcal/mol]
[2], x2 = 0 | 0

CCCCCCCC [octane] + CCCCCCCCCC(=O)OC
Conditions | excess molar enthalpy [kcal/mol]
[2], x2 = 0 | 0

CCCCCCCCCCCCCCCC [hexadecane] + CCCCCCCCCC(=O)OC
x2 = 0
Conditions | excess molar enthalpy [kcal/mol] | mass density [kg/m3]
[1] | – | 769.8
[2] | 0 | –

CCCCCCCCCC [decane]
Conditions | mass density [kg/m3] | refractive index
[3] | 726.61 | –
[4] | – | 1.41

CCCCCC [hexane]
Conditions | mass density [kg/m3] | refractive index
[3] | 654.81 | –
[4] | – | 1.3725

CCCCCCCCCCCCCC [tetradecane] + CCCCCCCCCC(=O)OC
x2 = 0
Conditions | excess molar enthalpy [kcal/mol] | mass density [kg/m3]
[1] | – | 759.17
[2] | 0 | –

CCCCCCCC [octane]
Conditions | mass density [kg/m3] | refractive index
[3] | 698.45 | –
[4] | – | 1.3955

CCCCCCCCCC(=O)OC [methyl decanoate] + CCCCCC
[2]
Conditions | excess molar enthalpy [kcal/mol]
x1 = 0.0479 | 0.0382
x1 = 0.0943 | 0.0636
x1 = 0.1448 | 0.081
x1 = 0.1927 | 0.105
x1 = 0.2477 | 0.114
x1 = 0.3077 | 0.123
x1 = 0.3542 | 0.126
x1 = 0.4059 | 0.125
x1 = 0.4574 | 0.12
x1 = 0.5055 | 0.113
x1 = 0.5557 | 0.107
x1 = 0.6037 | 0.0985
x1 = 0.6531 | 0.088
x1 = 0.7032 | 0.077
x1 = 0.752 | 0.0679
x1 = 0.8028 | 0.0543
x1 = 0.8496 | 0.0399
x1 = 0.9014 | 0.0277
x1 = 0.9328 | 0.0174
x1 = 1 | 0

CCCCCCCCCC(=O)OC [methyl decanoate] + CCCCCCCC
[2]
Conditions | excess molar enthalpy [kcal/mol]
x1 = 0.0551 | 0.0394
x1 = 0.1035 | 0.0691
x1 = 0.154 | 0.0949
x1 = 0.2078 | 0.113
x1 = 0.2514 | 0.127
x1 = 0.3088 | 0.137
x1 = 0.3584 | 0.143
x1 = 0.399 | 0.147
x1 = 0.4514 | 0.146
x1 = 0.5051 | 0.143
x1 = 0.5555 | 0.137
x1 = 0.599 | 0.131
x1 = 0.657 | 0.115
x1 = 0.7066 | 0.103
x1 = 0.7511 | 0.0913
x1 = 0.8069 | 0.0712
x1 = 0.8577 | 0.0533
x1 = 0.9098 | 0.0351
x1 = 0.9561 | 0.0167
x1 = 1 | 0

CCCCCCCCCCCCCC [tetradecane]
Conditions | mass density [kg/m3] | refractive index
[3] | 759.17 | –
[4] | – | 1.4273

CCCCCCCCCCCC [dodecane]
Conditions | mass density [kg/m3] | refractive index
[3] | 745.2 | –
[4] | – | 1.4197

CCCCCCCCCCCCCCCC [hexadecane]
Conditions | mass density [kg/m3] | refractive index
[3] | 769.8 | –
[4] | – | 1.4323

CCCCCCCCCC(=O)OC [methyl decanoate] + CCCCCCCCCC
[2]
Conditions | excess molar enthalpy [kcal/mol]
x1 = 0.0469 | 0.033
x1 = 0.0985 | 0.0662
x1 = 0.1523 | 0.0915
x1 = 0.2018 | 0.115
x1 = 0.2537 | 0.133
x1 = 0.3062 | 0.15
x1 = 0.3563 | 0.156
x1 = 0.4008 | 0.16
x1 = 0.4543 | 0.162
x1 = 0.5058 | 0.159
x1 = 0.5498 | 0.156
x1 = 0.6017 | 0.146
x1 = 0.6524 | 0.133
x1 = 0.7078 | 0.114
x1 = 0.7597 | 0.0994
x1 = 0.8086 | 0.0813
x1 = 0.8592 | 0.0607
x1 = 0.9058 | 0.0406
x1 = 0.9566 | 0.0151
x1 = 1 | 0

CCCCCC [hexane] + CCCCCCCCCC(=O)OC
Conditions | excess molar enthalpy [kcal/mol]
[2], x2 = 0 | 0

CCCCCCCCCC(=O)OC [methyl decanoate] + CCCCCCCCCCCCCCCC
Conditions | excess molar enthalpy, [2] [kcal/mol] | mass density, [1] [kg/m3]
x1 = 0.0499 | – | 773.1
x1 = 0.0636 | 0.0471 | –
x1 = 0.0998 | – | 776.6
x1 = 0.1131 | 0.081 | –
x1 = 0.1501 | – | 780.26
x1 = 0.1619 | 0.107 | –
x1 = 0.2 | – | 783.98
x1 = 0.201 | 0.129 | –
x1 = 0.2497 | – | 787.88
x1 = 0.2575 | 0.153 | –
x1 = 0.3006 | – | 791.99
x1 = 0.3056 | 0.17 | –
x1 = 0.3497 | – | 796.11
x1 = 0.3584 | 0.184 | –
x1 = 0.398 | 0.195 | –
x1 = 0.4001 | – | 800.47
x1 = 0.4494 | 0.198 | –
x1 = 0.45 | – | 804.97
x1 = 0.4955 | 0.198 | –
x1 = 0.4997 | – | 809.64
x1 = 0.5479 | 0.195 | –
x1 = 0.5502 | – | 814.55
x1 = 0.5983 | 0.188 | –
x1 = 0.5995 | – | 819.57
x1 = 0.6494 | 0.177 | –
x1 = 0.6501 | – | 824.85
x1 = 0.6996 | – | 830.28
x1 = 0.7034 | 0.163 | –
x1 = 0.7497 | – | 835.95
x1 = 0.7512 | 0.145 | –
x1 = 0.7997 | – | 841.91
x1 = 0.8015 | 0.126 | –
x1 = 0.8489 | – | 847.93
x1 = 0.8493 | 0.102 | –
x1 = 0.8992 | – | 854.43
x1 = 0.8995 | 0.0707 | –
x1 = 0.9494 | – | 861.11
x1 = 0.9495 | 0.0366 | –
x1 = 1 | 0 | 868.02
